In patent US9822099B2, “Triazole derivatives” (priority 2013, dated 2017):
Read-outs that look alike come from different tables or passages of the source. Marks after values point to notes of the source that are not given here.

What was measured:
Botrytis cinerea = assay: Example A: in vivo preventive test on Botrytis cinerea (grey mould); details: gherkin plants, preventive spray, evaluated 4 to 5 days after inoculation
Protocol: (§1) The young plants of gherkin are treated by spraying the active ingredient prepared as described above. Control plants are treated only with an aqueous solution of acetone/Dimethyl sulfoxide/Tween®. After 24 hours, the plants are contaminated by spraying the leaves with an aqueous suspension of Botrytis cinerea spores.

Puccinia recondita = assay: Example B: in vivo preventive test on Puccinia recondita (brown rust on wheat); details: wheat plants, preventive spray, evaluated 11 days after inoculation
Protocol: as §1, with “wheat” for “gherkin”, “Puccinia recondita” for “Botrytis cinerea”

Pyrenophora teres = assay: Example C: in vivo preventive test on Pyrenophora teres (net blotch on barley); details: barley plants, preventive spray, evaluated 14 days after inoculation
Protocol: as §1, with “barley” for “gherkin”, “Pyrenophora teres” for “Botrytis cinerea”

Septoria tritici = assay: Example D: in vivo preventive test on Septoria tritici (leaf spot on wheat); details: wheat plants, preventive spray, evaluated 24 days after inoculation
Protocol: as §1, with “wheat” for “gherkin”, “Septoria tritici” for “Botrytis cinerea”

Sphaerotheca fuliginea = assay: Example E: in vivo preventive test on Sphaerotheca fuliginea (powdery mildew on cucurbits); details: gherkin plants, preventive spray, evaluated 15 days after inoculation
Protocol: as §1, with “Sphaerotheca fuliginea” for “Botrytis cinerea”

Uromyces appendiculatus = assay: Example F: in vivo preventive test on Uromyces appendiculatus (bean rust); details: bean plants, preventive spray, evaluated 11 days after inoculation
Protocol: as §1, with “bean” for “gherkin”, “Uromyces appendiculatus” for “Botrytis cinerea”

[1] = system: Blumeria graminis f. sp. hordei; assay: Example G: Blumeria test (barley)/preventive; assay type: in vivo; details: 500 ppm of active ingredient, preventive, evaluated 7 days after inoculation
In short: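 Active compound formulated in N,N-dimethylacetamide with alkylaryl polyglycol ether emulsifier, diluted in water, and sprayed onto young barley plants at the stated application rate. Once the coating dried, plants were dusted with Blumeria graminis f. sp. hordei spores as a preventive test.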

Fusarium culmorum = assay: Example H: Fusarium culmorum-test (wheat)/curative; assay type: in vivo; details: 500 ppm of active ingredient, curative, evaluated 5 days after inoculation
Protocol: Solvent: 49 parts by weight of N,N-dimethylacetamide
Emulsifier: 1 part by weight of alkylaryl polyglycol ether
To produce a suitable preparation of active compound, 1 part by weight of active compound or active compound combination is mixed with the stated amounts of solvent and emulsifier, and the concentrate is diluted with water to the desired concentration.
To test for curative activity, young plants are slightly injured by using a sandblast and afterwards they are sprayed with a conidia suspension of Fusarium culmorum and placed for 24 hours in a greenhouse under a translucent incubation cabinet at a temperature of approximately 22° C. and a relative atmospheric humidity of approximately 100% and are subsequently sprayed with the preparation of active compound at the stated rate of application.
After the spray coating has been dried, the plants remain in the greenhouse under translucent incubation cloches at a temperature of approximately 22° C. and a relative atmospheric humidity of approximately 100%.
The test is evaluated 5 days after the inoculation. 0% means an efficacy which corresponds to that of the untreated control, while an efficacy of 100% means that no disease is observed.

Fusarium graminearum = assay type: in vivo; details: 500 ppm of active ingredient; barley, preventive; evaluated 5 days after inoculation
[2] = system: Fusarium nivale (var. majus); assay: Example J: Fusarium nivale (var. majus)-test (wheat)/preventive; assay type: in vivo; details: 500 ppm of active ingredient, preventive, evaluated 5 days after inoculation
In short: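 Young wheat plants sprayed preventively with active compound (DMA/emulsifier concentrate diluted in water) at the stated rate, then sandblast-wounded and inoculated with conidia. Held in greenhouse at ~10 °C, ~100% RH. Efficacy scored 5 days post-inoculation: 0% = untreated control, 100% = no disease.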

Leptosphaeria nodorum = assay: Example K: Leptosphaeria nodorum test (wheat)/preventive; assay type: in vivo; details: 500 ppm of active ingredient, preventive, evaluated 8 days after inoculation
Protocol: Solvent: 49 parts by weight of N,N-dimethylacetamide Emulsifier: 1 part by weight of alkylaryl polyglycol ether To produce a suitable preparation of active compound, 1 part by weight of active compound or active compound combination is mixed with the stated amounts of solvent and emulsifier, and the concentrate is diluted with water to the desired concentration. To test for preventive activity, young plants are sprayed with the preparation of active compound or active compound combination at the stated rate of application. After the spray coating has been dried, the plants are sprayed with a spore suspension of Leptosphaeria nodorum.

Phakopsora pachyrhizi = assay: Example L: Phakopsora test (soybeans)/preventive; assay type: in vivo; details: 100 ppm of active ingredient, preventive, evaluated 7 days after inoculation
Pyricularia oryzae = assay type: in vivo; details: 500 ppm of active ingredient; rice, preventive; evaluated 8 days after inoculation
Venturia inaequalis = assay: Example O: Venturia test (apples)/preventive; assay type: in vivo; details: 100 ppm of active ingredient, preventive, evaluated 10 days after inoculation
Protocol: (§2) Solvent: 24.5 parts by weight of acetone • 24.5 parts by weight of dimethylacetamide Emulsifier: 1 part by weight of alkylaryl polyglycol ether To produce a suitable preparation of active compound, 1 part by weight of active compound is mixed with the stated amounts of solvent and emulsifier, and the concentrate is diluted with water to the desired concentration. To test for preventive activity, young plants are sprayed with the preparation of active compound at the stated rate of application.

Podosphaera leucotricha = assay: Example M: Podosphaera test (apples)/preventive; assay type: in vivo; details: 100 ppm of active ingredient, preventive, evaluated 10 days after inoculation
Protocol: as §2, with “application. After the spray coating has dried on, the plants are inoculated with an aqueous spore suspension of the causal agent of apple mildew (Podosphaera leucotricha).” for “application.”

[3] = method [a]: LC-MS at pH 2.7, 0.1% formic acid in water / acetonitrile gradient

SMILES	Eff. % (Botrytis cinerea; 500 ppm of active ingredient) [%]	Eff. % (Puccinia recondita; 500 ppm of active ingredient) [%]	Eff. % (Pyrenophora teres; 500 ppm of active ingredient) [%]	Eff. % (Septoria tritici; 500 ppm of active ingredient) [%]	Eff. % (Sphaerotheca fuliginea; 500 ppm of active ingredient) [%]	Eff. % (Uromyces appendiculatus; 500 ppm of active ingredient) [%]	Eff. % [1] [%]	Eff. % (Fusarium culmorum) [%]	Eff. % (Fusarium graminearum) [%]	Eff. % [2] [%]	Eff. % (Leptosphaeria nodorum) [%]	Eff. % (Phakopsora pachyrhizi) [%]	Eff. % (Pyricularia oryzae) [%]	Eff. % (Venturia inaequalis) [%]	LogP (pH 2.7)	Eff. % (Botrytis cinerea; 100 ppm of active ingredient) [%]	Eff. % (Puccinia recondita; 100 ppm of active ingredient) [%]	Eff. % (Septoria tritici; 100 ppm of active ingredient) [%]	Eff. % (Sphaerotheca fuliginea; 100 ppm of active ingredient) [%]	Eff. % (Uromyces appendiculatus; 100 ppm of active ingredient) [%]	further results
OC(Cc1ccc(Cl)nc1Cl)(Cn1cncn1)C1(Cl)CC1 (stereo not drawn) [Example I-53]	100	94	86	100	100	98	100	90	100	100	100	93	80	97	2.55^[a]						
OC(Cc1ccncc1Cl)(Cn1cncn1)C1(Cl)CC1 (stereo not drawn) [Example I-5, 2-(1-chlorocyclopropyl)-1-(3-chloropyridin-4-yl)-3-(1H-1,2,4-triazol-1-yl)propan-2-ol]	100	100		100	100	98	100	100	100	100	90	100	75	100							Eff. % (Podosphaera leucotricha): 100%
CC1(C(O)(Cc2cccnc2Cl)Cn2cncn2)CC1 (stereo not drawn) [Example I-8]							100	100	100	100	92	95	100	100		87	94	94	100	100	LogP [3]: 1.73^[a]
OC(Cc1cc(F)ncc1Cl)(Cn1cncn1)C1(F)CC1 (racemic) [Example I-65]	100	98	100	100	100	100	100	100	100	100	100	100	86	100	1.77^[a]						
CC(CF)(CF)C(O)(Cc1ccncc1Cl)Cn1cncn1 (stereo not drawn) [Example I-6]							100	100	100	100	100	95	83	100	1.54^[a]	76	81	100	100	100	
OC(Cc1cccnc1Cl)(Cn1cncn1)C1(Cl)CC1 (stereo not drawn) [Example I-3]	100	98	100	100		100	100	100	100	100	100	100	100	98	1.78^[a]				100		Eff. % (Podosphaera leucotricha): 100%
OC(Cc1cccnc1F)(Cn1cncn1)C1(Cl)CC1 (stereo not drawn) [Example I-51]	100	98	100	100	100	86	100	100	100	100	100	100	80	94	1.64^[a]						
OC(Cc1ccncc1F)(Cn1cncn1)C1(Cl)CC1 (stereo not drawn) [Example I-18]							100	100	100	100	100	95		100	1.29^[a]	100	94	98	100	97	Eff. % (Pyrenophora teres; 100 ppm of active ingredient): 83%; Eff. % (Podosphaera leucotricha): 97%
OC(Cc1ccncc1Cl)(Cn1cncn1)C1(F)CC1 (stereo not drawn) [Example I-7]							100	100	100	100	100	94	100	98		100	94	98	100	100	Eff. % (Pyrenophora teres; 100 ppm of active ingredient): 92%; LogP [3]: 1.29^[a]
OC(Cc1cccnc1Cl)(Cn1cncn1)C1(F)CC1 (stereo not drawn) [Example I-25]							100	100	100	100	100	99		89	1.42^[a]	99	100	100	100	100	Eff. % (Pyrenophora teres; 100 ppm of active ingredient): 97%
